According to US10100372B2, “Recombinant RSV reporter virus” (priority 2014, dated 2018):

What was measured:
[1] = system: recRSV-L19FD489E-fireSMASh; format: cell-based
recRSV A2-L19F [2] = assay: microbe, parasite or virus in culture; format: cell-based
recRSV A2-L19F-ren = format: cell-based; conditions: GPAR-3710 added later than four hours post-infection; JMN3-003 added eight hours post-infection
recRSV A2-L19F [3] = format: cell-based; conditions: increasing compound concentrations
[4] = system: recRSV-L19FD489E-fireSMASh; format: cell-based, Respiratory Syncytial Virus; conditions: 10 μM; 96-well; BEAS-2B
RSV F protein [5] = target: T1, RSV F protein (Human respiratory syncytial virus, UniProt P12568, E66K/H515N/I79M/K191R/N371Y/N80K/T101P/T357K/V557I); format: cell-based
T1 construct: expressed in transfected cells; host or cells: HEp-2 cells infected with recRSV A2-L19F-mKate2; F is expressed from the viral genome, not from a plasmid

RSV F protein [6] = target: T1, RSV F protein; format: cell-based; conditions: plasmid-based reporter assay
recRSV A2-L19F-renilla = assay: microbe, parasite or virus in culture; format: cell-based; conditions: human respiratory syncytial virus; 0.5 μM concentration counterscreens; read-out: RSV inhibition
[7] = system: host cell metabolic activity; conditions: sourced compound

T1 sequence (P12568 137-574, looked up, stated change not applied): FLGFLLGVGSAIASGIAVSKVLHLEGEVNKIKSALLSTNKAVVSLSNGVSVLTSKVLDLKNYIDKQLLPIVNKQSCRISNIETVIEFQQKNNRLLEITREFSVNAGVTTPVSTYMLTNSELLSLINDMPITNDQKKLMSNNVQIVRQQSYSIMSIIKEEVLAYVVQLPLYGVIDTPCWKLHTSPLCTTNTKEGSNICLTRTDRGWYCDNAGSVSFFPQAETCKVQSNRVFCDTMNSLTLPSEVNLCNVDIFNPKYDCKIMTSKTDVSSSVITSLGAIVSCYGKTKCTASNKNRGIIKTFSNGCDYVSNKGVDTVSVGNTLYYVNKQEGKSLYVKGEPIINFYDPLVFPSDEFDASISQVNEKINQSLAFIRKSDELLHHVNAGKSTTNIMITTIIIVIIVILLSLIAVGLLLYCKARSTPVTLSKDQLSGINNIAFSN
T1 sequence (P12568 26-109, looked up, stated change not applied): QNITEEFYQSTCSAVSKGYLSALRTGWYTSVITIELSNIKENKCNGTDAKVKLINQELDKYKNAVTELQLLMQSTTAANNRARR

Compound	effect on progeny virus titers ([1]; 3 μM ASV)	reduction of firefly luciferase activity ([1]; growth in the presence of 3 μM ASV)	active concentrations against different RSV strains (recRSV A2-L19F [2]; dose-dependent inhibition of different RSV strains)	EC50 (recRSV A2-L19F [2]; human respiratory syncytial virus, active concentration based on in vitro assays, RSV entry inhibitor) [nM]	antiviral activity in time-of-addition study (recRSV A2-L19F-ren)	RSV entry rate (recRSV A2-L19F [3])	hit status in co-infection validation assay with pan-resistant RSV-FD489E [4]	adaptation period until robust resistance (growth in 30 μM compound) (RSV F protein [5]; gradual adaptation to increasing compound concentrations) [days]	reported resistance sites (RSV F protein [5]; resistance sites in the RSV F protein, identified through viral adaptation)	RSV F protein-mediated membrane fusion activity (RSV F protein [6])	inhibition at 0.5 µM (recRSV A2-L19F-renilla) [%]	cytotoxicity [7]
C=C[C@@H]1C[C@]1(NC(=O)[C@@H]1C[C@@H](Oc2ncc(OC)c3ccc(Cl)cc23)CN1C(=O)[C@@H](NC(=O)OC(C)(C)C)C(C)(C)C)C(=O)NS(=O)(=O)C1CC1 [ASV, asunaprevir]	no effect	approximately 90%										
Cc1ccc(-n2c(SCC(=O)N/N=C/c3c4ccccc4cc4ccccc34)nnc2-c2ccccc2)cc1 [GPAR-3710]			nano- to low micromolar range	130	essentially all antiviral activity was lost	significant, dose-dependent reduction	did not emerge as hits	≤ 30	FT400A FD401E FD486E FF488I FF488S FD489E	specifically and potently inhibited	> 90	low cytotoxicity
